Measurements from patent publication US9096615B2, “Bridged bicyclic amino thiazine dioxide compounds as inhibitors of beta-secretase and methods of use thereof” (AMGEN INC., priority 2013, dated 2015).

Tests used:
[1] = system: Aβ40 in conditioned medium of cells stably expressing Amyloid Precursor Protein (APP); test: In vitro BACE cell-based assay (HEK cell assay, Aβ40 sandwich ELISA); details: Homo sapiens, HEK293; average IC50; read-out: BACE1 cell assay IC50
How it was run: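 APP-stable cells were cultured 24 h at 37 °C, then given compound as 10-point dose-response (top 100 μM or 10 μM; 0.1% DMSO final) for 24 h. Aβ40 in conditioned medium was measured by sandwich ELISA (pAb40 capture, biotinylated 6E10 detection, Eu time-resolved fluorescence). IC50 from percent inhibition versus concentration.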

[2] = target: BACE1 (Homo sapiens, UniProt P56817); test: In vitro enzymatic BACE FRET assay; assay type: biochemical; details: average IC50; read-out: BACE1 Enzyme assay IC50
BACE1, sequence (P56817 46-501, species assumed): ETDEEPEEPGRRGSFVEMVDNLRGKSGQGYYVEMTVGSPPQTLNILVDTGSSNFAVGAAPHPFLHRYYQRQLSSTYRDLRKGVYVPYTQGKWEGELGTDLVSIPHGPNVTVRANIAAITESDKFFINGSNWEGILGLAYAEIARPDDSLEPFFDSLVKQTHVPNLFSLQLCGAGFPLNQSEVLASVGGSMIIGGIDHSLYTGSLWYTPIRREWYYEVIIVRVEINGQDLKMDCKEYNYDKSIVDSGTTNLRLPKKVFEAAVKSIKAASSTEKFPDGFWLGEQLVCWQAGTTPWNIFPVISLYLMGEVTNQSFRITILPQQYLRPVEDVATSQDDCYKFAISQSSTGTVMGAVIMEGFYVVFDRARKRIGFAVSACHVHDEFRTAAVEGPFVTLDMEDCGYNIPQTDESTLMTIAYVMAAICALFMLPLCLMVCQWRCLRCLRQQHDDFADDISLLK
How it was run: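 BACE (0.2 nM) pre-incubated 1 h with serially diluted inhibitor in 0.05 M acetate pH 4.2, 10% DMSO, 100 uM genapol; 50 nM FRET peptide substrate added, 1 h incubation. Stopped with Tris to neutral pH; fluorescence read (ex 488, […]).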

[3] = target: T1, human Bace2 protein (Homo sapiens, UniProt Q9Y5Z0); test: In vitro enzymatic BACE2 FRET assay; assay type: biochemical; details: average IC50; read-out: BACE2 Enzyme assay IC50
T1 construct: V5 (C); 6-His (C)
T1 sequence (Q9Y5Z0 63-518): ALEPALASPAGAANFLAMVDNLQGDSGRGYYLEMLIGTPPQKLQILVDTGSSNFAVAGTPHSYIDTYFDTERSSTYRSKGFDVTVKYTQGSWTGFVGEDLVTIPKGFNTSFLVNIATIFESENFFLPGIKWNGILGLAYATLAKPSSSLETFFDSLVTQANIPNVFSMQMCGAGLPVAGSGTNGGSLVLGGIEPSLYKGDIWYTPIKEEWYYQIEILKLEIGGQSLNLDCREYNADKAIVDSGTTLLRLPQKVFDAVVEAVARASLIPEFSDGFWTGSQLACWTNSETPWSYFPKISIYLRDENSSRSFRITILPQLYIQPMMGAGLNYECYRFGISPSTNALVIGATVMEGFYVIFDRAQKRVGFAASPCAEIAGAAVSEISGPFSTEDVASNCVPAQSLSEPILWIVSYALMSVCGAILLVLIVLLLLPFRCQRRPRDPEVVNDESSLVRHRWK
Method: In Vitro Enzymatic BACE2 FRET (Fluorescence Resonance Energy Transfer) Assay
Enzyme Assay Data in the Table 3
The assay buffer used in this screen is 0.05 M acetate, pH 4.2, 10% DMSO final, 100 uM genapol (which is a nonionic detergent, below its Critical Micelle Concentration). The Beta Secretase2 enzyme (human Bace2 protein with C-terminal V5 and 6-His tag; 0.2 nM) is pre-incubated for one hour with inhibitors, typically in about 1 uL of DMSO according to a serial dilution, are added thereto. This assay is effectively started by the addition of FRET substrate (50 nM) and the combination is incubated for one hour. Final assay concentration of about 0.64 nM. The FRET assay is terminated with by addition of Tris buffer, which raises the pH to neutrality, and the fluorescence is determined. The FRET substrate is a peptide with commercially available fluorophore and quencher, on opposite sides of the BACE cleavage site. Proteolytic cleavage of the FRET substrate releases quenching of fluorescence (excitation 488 nm and […]).

[4] = target: T2, Cathepsin D (Cat D) (Homo sapiens, UniProt P07339); test: In vitro enzymatic Cathepsin D (Cat D) FRET assay; assay type: biochemical; details: average IC50; first procedure; read-out: CatD IC50
T2 construct: made in house; host or cells: CHO cells
T2 sequence (P07339 65-412, species assumed): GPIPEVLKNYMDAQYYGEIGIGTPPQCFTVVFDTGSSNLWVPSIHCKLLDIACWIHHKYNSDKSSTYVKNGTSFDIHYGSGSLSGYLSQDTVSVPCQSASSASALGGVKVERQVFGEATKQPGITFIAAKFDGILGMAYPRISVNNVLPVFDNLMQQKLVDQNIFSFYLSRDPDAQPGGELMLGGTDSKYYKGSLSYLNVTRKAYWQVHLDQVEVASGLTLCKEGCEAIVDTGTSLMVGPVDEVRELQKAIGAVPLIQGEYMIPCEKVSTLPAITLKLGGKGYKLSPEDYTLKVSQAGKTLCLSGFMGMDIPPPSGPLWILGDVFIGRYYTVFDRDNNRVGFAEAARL
How it was run: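 Recombinant human Cat D expressed in CHO cells, 9 nM, pre-incubated 1 h with inhibitor in 0.05 M citrate pH 3.5, 10% DMSO, 5 mM CHAPS. Reaction started with 20 nM FRET peptide substrate, run 1 h, stopped with Tris to neutral pH; fluorescence read at ex 500/em 580 nm.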

Compound | IC50 [1] [µM] | IC50 [2] [µM] | IC50 [3] [µM] | IC50 [4] [µM]
Cc1cc(Cl)cnc1C(=O)Nc1ccc(F)c([C@@]2(CF)N=C(N)[C@@]3(C)CC[C@@H]2S3(=O)=O)c1 (single isomer, unassigned) [Example 118] | 0.062 | 0.017 | 0.002 | > 400
CC(C)(C)C#CCOc1cnc(C(=O)Nc2ccc(F)c([C@@]3(C)N=C(N)C4(CF)CCC3S4(=O)=O)c2)cn1 (stereo in doubt) [Example 38, N-(3-((1S,2R,5R)-4-Amino-5-(fluoromethyl)-2-methyl-8,8-dioxido-8-thia-3-azabicyclo[3.2.1]oct-3-en-2-yl)-4-fluorophenyl)-5-((4,4-dimethylpent-2-yn-1-yl)oxy)pyrazine-2-carboxamide] | 0.031 | 0.004 | 0.011 | 437
COc1cnc(C(=O)Nc2ccc(F)c([C@@]3(C)N=C(N)[C@@]4(CF)CC[C@@H]3S4(=O)=O)c2)c(F)c1 [Example 43, N-(3-((1S,2R,5R)-4-amino-5-(fluoromethyl)-2-methyl-8,8-dioxido-8-thia-3-azabicyclo[3.2.1]oct-3-en-2-yl)-4-fluorophenyl)-3-fluoro-5-methoxy-2-pyridinecarboxamide] | 0.007 | 0.009 | 0.014 | > 400
C#CC(C)(C)Oc1cnc(C(=O)Nc2ccc(F)c([C@@]3(C)N=C(N)[C@@]4(CF)CC[C@@H]3S4(=O)=O)c2)cn1 [Example 44, N-(3-((1S,2R,5R)-4-amino-5-(fluoromethyl)-2-methyl-8,8-dioxido-8-thia-3-azabicyclo[3.2.1]oct-3-en-2-yl)-4-fluorophenyl)-5-((1,1-dimethyl-2-propyn-1-yl)oxy)-2-pyrazinecarboxamide] | 0.153 | 0.034 | 0.283 | > 400
C#C[C@H](C)Oc1cnc(C(=O)Nc2ccc(F)c([C@@]3(C)N=C(N)[C@@]4(CF)CC[C@@H]3S4(=O)=O)c2)cn1 [Example 45, N-(3-((1S,2R,5R)-4-amino-5-(fluoromethyl)-2-methyl-8,8-dioxido-8-thia-3-azabicyclo[3.2.1]oct-3-en-2-yl)-4-fluorophenyl)-5-(((1S)-1-methyl-2-propyn-1-yl)oxy)-2-pyrazinecarboxamide] | 0.003 | 0.003 | 0.019 | 596
C#CCOc1cnc2c(Nc3ccc(F)c([C@@]4(C)N=C(N)[C@@]5(CF)CC[C@@H]4S5(=O)=O)c3)nccc2n1 [Example 46, N-(3-((1S,2R,5R)-4-amino-5-(fluoromethyl)-2-methyl-8,8-dioxido-8-thia-3-azabicyclo[3.2.1]oct-3-en-2-yl)-4-fluorophenyl)-2-(2-propyn-1-yloxy)pyrido[3,4-b]pyrazin-5-amine] | 0.005 | 0.001 | 0.009 | 1000
C[C@]1(c2cc(Nc3ncnc4cc(Br)cnc34)ccc2F)N=C(N)[C@@]2(CF)CC[C@@H]1S2(=O)=O [Example 47, N-(3-((1S,2R,5R)-4-amino-5-(fluoromethyl)-2-methyl-8,8-dioxido-8-thia-3-azabicyclo[3.2.1]oct-3-en-2-yl)-4-fluorophenyl)-7-bromopyrido[3,2-d]pyrimidin-4-amine] | 0.036 | 0.007 | 0.002 | 174
C[C@]1(c2cc(Nc3ncc(F)c4cc(C#N)cnc34)ccc2F)N=C(N)[C@@]2(CF)CC[C@@H]1S2(=O)=O [Example 53, 8-((3-((1S,2R,5R)-4-amino-5-(fluoromethyl)-2-methyl-8,8-dioxido-8-thia-3-azabicyclo[3.2.1]oct-3-en-2-yl)-4-fluorophenyl)amino)-5-fluoro-1,7-naphthyridine-3-carbonitrile] | 0.038 | 0.003 | 0.002 | > 14.8
